What is called EC50 is the concentration giving half of the maximal effect.

Here are results for 4 molecules from article PMC10967972, “Different Coactivator Recruitment to Human PPARα/δ/γ Ligand-Binding Domains by Eight PPAR Agonists to Treat Nonalcoholic Fatty Liver Disease” (Biomedicines, 2024).

Like-named read-outs stand apart in the source and are kept apart here.

Common to all, as to assay type: biochemical
Assay [1] deals with T1, human PPARδ-LBD (Homo sapiens, UniProt Q03181).
T1 construct: PPARδ-LBD (AAs 170–441); made in house
T1 sequence (Q03181 170-441): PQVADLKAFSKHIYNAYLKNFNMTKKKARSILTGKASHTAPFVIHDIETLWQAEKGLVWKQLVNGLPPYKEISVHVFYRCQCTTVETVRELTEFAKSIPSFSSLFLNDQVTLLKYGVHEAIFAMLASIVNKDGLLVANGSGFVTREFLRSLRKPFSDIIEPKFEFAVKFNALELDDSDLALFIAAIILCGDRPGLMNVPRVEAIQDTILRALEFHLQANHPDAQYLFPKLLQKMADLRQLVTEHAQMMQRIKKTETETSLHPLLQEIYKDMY
As to the kind of experiment: TR-FRET coactivator recruitment assay, PPARδ-LBD. The note with it: for EC50: Buffer A; for Approximate potency order in the recruitment of four coactivators, PPARδ: evaluated based on EC50 values, PGC, PGC1α, SRC, SRC1, TRAP, TRAP220; for recruitment of coactivators to PPARδ-LBD (in words): four coactivator peptides. Background: TR-FRET usually uses a lanthanide donor and a delayed reading to cut background.

The target in assay [2] is T2, human PPARγ-LBD (Homo sapiens, UniProt P37231).
T2 construct: PPARγ-LBD (AAs 203–477 in isoform 1); made in house
T2 sequence (P37231 203-477 isoform P37231-2): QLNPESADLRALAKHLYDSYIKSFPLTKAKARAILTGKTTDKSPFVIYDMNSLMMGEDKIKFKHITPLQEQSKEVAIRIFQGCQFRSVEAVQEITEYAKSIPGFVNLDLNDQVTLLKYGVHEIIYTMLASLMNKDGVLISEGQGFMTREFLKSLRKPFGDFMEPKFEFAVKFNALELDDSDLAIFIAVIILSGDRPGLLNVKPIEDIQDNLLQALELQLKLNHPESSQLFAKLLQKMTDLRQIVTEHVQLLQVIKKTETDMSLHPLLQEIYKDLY
As to the kind of experiment: TR-FRET coactivator recruitment assay, PPARγ-LBD. The note with it: for Approximate potency order in the recruitment of four coactivators, PPARγ: evaluated based on EC50 values, PGC, PGC1α, SRC, SRC1, TRAP, TRAP220.

The target of assay [3] is T3, human PPARα-LBD (Homo sapiens, UniProt Q07869).
T3 construct: Human PPARα-LBD [amino acids (AAs) 200–468]; made in house
T3 sequence (Q07869 200-468): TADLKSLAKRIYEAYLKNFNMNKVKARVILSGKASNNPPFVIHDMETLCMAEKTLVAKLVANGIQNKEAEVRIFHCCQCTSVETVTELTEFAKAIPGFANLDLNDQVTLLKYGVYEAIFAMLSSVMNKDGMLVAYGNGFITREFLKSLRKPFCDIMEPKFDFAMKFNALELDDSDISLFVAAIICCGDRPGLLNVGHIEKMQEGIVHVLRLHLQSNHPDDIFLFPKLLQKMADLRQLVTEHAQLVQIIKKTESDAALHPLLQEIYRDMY
As to the kind of experiment: TR-FRET coactivator recruitment assay, PPARα-LBD. The note with it: for EC50: Buffer A; for Approximate potency order in the recruitment of four coactivators, PPARα: evaluated based on EC50 values, PGC, PGC1α, SRC, SRC1, TRAP, TRAP220.

Where [4] appears, read: read-out: PPARδ CBP % of GW501516 max response.
[5] abbreviates: read-out: PPARδ PGC1α % of GW501516 max response.
Where [6] appears, read: read-out: PPARδ SRC1 % of GW501516 max response.
The mark [7] stands for this setting: read-out: PPARδ TRAP220 % of GW501516 max response.
The mark [8] stands for this setting: CBP peptide recruitment, Buffer A, read-out: PPARγ CBP EC50.
The mark [9] stands for this setting: PGC1α peptide recruitment, Buffer A, read-out: PPARγ PGC1α EC50.
[10] abbreviates: SRC1 peptide recruitment, Buffer A, read-out: PPARγ SRC1 EC50.
The mark [11] stands for this setting: TRAP220 peptide recruitment, Buffer A, read-out: PPARγ TRAP220 EC50.
The mark [12] stands for this setting: read-out: PPARγ CBP % of GW1929 max response.
Setting [13] is: read-out: PPARγ PGC1α % of GW1929 max response.
Where [14] appears, read: read-out: PPARγ SRC1 % of GW1929 max response.
[15] abbreviates: read-out: PPARγ TRAP220 % of GW1929 max response.
Where [16] appears, read: CBP peptide recruitment, read-out: PPARα CBP EC50.
[17] abbreviates: PGC1α peptide recruitment, read-out: PPARα PGC1α EC50.
Where [18] appears, read: SRC1 peptide recruitment, read-out: PPARα SRC1 EC50.
The mark [19] stands for this setting: TRAP220 peptide recruitment, read-out: PPARα TRAP220 EC50.
Setting [20] is: read-out: PPARα CBP % of GW7647 max response.
[21] abbreviates: read-out: PPARα PGC1α % of GW7647 max response.
Where [22] appears, read: read-out: PPARα SRC1 % of GW7647 max response.
The mark [23] stands for this setting: read-out: PPARα TRAP220 % of GW7647 max response.

Take `O=C(O)CCCc1cc2cc(Cl)ccc2n1S(=O)(=O)c1ccc2ncsc2c1` [Lanifibranor, lanifibranor]: the EC50 in assay [1] (CBP peptide recruitment, read-out: PPARδ CBP EC50) came out at 3.72 µM; in assay [1] (PGC1α peptide recruitment, read-out: PPARδ PGC1α EC50), 2.46 µM; in assay [1] (SRC1 peptide recruitment, read-out: PPARδ SRC1 EC50), 6.97 µM; in assay [1] (TRAP220 peptide recruitment, read-out: PPARδ TRAP220 EC50), 4.41 µM; in assay [2] (setting [8]), 2.64 µM; in assay [2] (setting [9]) it was 4.31 µM. Also, the EC50 in assay [2] (setting [10]) stood at 7.69 µM; in assay [2] (setting [11]), 5.07 µM; in assay [3] (setting [16]), 4.02 µM; in assay [3] (setting [17]), 9.95 µM; in assay [3] (setting [18]) it was 10.4 µM; in assay [3] (setting [19]), 7.31 µM. Moreover, in assay [1], the “Approximate potency order in the recruitment of four coactivators, PPARδ” value (“Approximate potency order … PPARδ” for short) is reported as “PGC>CBP>TRAP>SRC”. Moreover, the “recruitment of coactivators to PPARδ-LBD (in words)” value in assay [1] is “effective”. The Emax is 101% in assay [1] (setting [4]); 103% in assay [1] (setting [5]); 57.5% in assay [1] (setting [6]); 86.5% in assay [1] (setting [7]); 83.3% in assay [2] (setting [12]); 70.5% in assay [2] (setting [13]). Also, the Emax in assay [2] (setting [14]) came out at 46.1%; in assay [2] (setting [15]), 60.4%; in assay [3] (setting [20]) it was 71.7%; in assay [3] (setting [21]), 41.8%; in assay [3] (setting [22]), 49.3%; in assay [3] (setting [23]), 64.7%. Besides, the “Approximate potency order in the recruitment of four coactivators, PPARγ” value in assay [2] is given as “CBP>PGC>TRAP>SRC”. The “Approximate potency order in the recruitment of four coactivators, PPARα” value (“Approximate potency order … PPARα” below) in assay [3] was “CBP>TRAP>PGC=SRC”.

Take `CCc1ccc(CCOc2ccc(CC3SC(=O)NC3=O)cc2)nc1` (stereo not shown) [Pioglitazone, pioglitazone]: the “Approximate potency order … PPARδ” value in assay [1] is listed as “No activation”. Moreover, the Emax in assay [1] (setting [4]) worked out at 2.47%; in assay [1] (setting [5]), 4.53%; in assay [1] (setting [6]), 1.19%; in assay [1] (setting [7]), 1.55%; in assay [3] (setting [20]) it was 34.9%; in assay [3] (setting [21]), 13.9%. The Emax in assay [3] (setting [22]) was 8.37%; in assay [3] (setting [23]) it was 3.67%. Moreover, the “Approximate potency order … PPARα” value in assay [3] is given as “CBP>>>PGC=SRC=TRAP”.

As to `CSc1ccc(C(=O)/C=C/c2cc(C)c(OC(C)(C)C(=O)O)c(C)c2)cc1` [Elafibranor, elafibranor], in assay [1], the “Approximate potency order … PPARδ” value is “PGC>TRAP>CBP>SRC”. Besides, the “recruitment of coactivators to PPARδ-LBD (in words)” value in assay [1] is “effective”. The Emax came out at 30.8% in assay [1] (setting [4]); 68.5% in assay [1] (setting [5]); 19.9% in assay [1] (setting [6]); 44% in assay [1] (setting [7]); 36% in assay [2] (setting [12]); 30.8% in assay [2] (setting [13]). The Emax came to 9.11% in assay [2] (setting [14]); 29% in assay [2] (setting [15]); 61.6% in assay [3] (setting [20]); 45.6% in assay [3] (setting [21]); 41.6% in assay [3] (setting [22]); 36.2% in assay [3] (setting [23]). Also, the EC50 in assay [2] (setting [8]) was more than 10 µM; in assay [2] (setting [9]) it was more than 10 µM; in assay [2] (setting [10]), more than 30 µM; in assay [2] (setting [11]), more than 10 µM; in assay [3] (setting [16]) it was 2.77 µM; in assay [3] (setting [17]), 6.44 µM. Also, the EC50 is 4.98 µM in assay [3] (setting [18]) and 4.28 µM in assay [3] (setting [19]). For the same molecule, the “Approximate potency order in the recruitment of four coactivators, PPARγ” value in assay [2] is “PGC=CBP=TRAP>SRC”. Besides, in assay [3], the “Approximate potency order … PPARα” value is on record as “CBP>PGC=SRC=TRAP”.

Turning to GW1929, the “PPARγ CBP maximal fold-induction of basal levels” value in assay [2] (CBP peptide, fold over no ligand) came to 14.7 ×. Also, the “PPARγ PGC1α maximal fold-induction of basal levels” value in assay [2] (PGC1α peptide, fold over no ligand) is 11.9 ×. Also, the “PPARγ SRC1 maximal fold-induction of basal levels” value in assay [2] (SRC1 peptide, fold over no ligand) stood at 12.6 ×. For the same molecule, the “PPARγ TRAP220 maximal fold-induction of basal levels” value in assay [2] (TRAP220 peptide, fold over no ligand) is listed as 15.5 ×. In assay [2] (range over PGC1α, CBP, SRC1, TRAP220, Buffer A), the “maximal fold-induction from basal (no ligand) levels on the four coactivators, PPARγ” value was 11.9–15.5 ×.
